# Measurements as given in article PMC4561908, “Direct Pore Binding as a Mechanism for Isoflurane Inhibition of the Pentameric Ligand-gated Ion Channel ELIC” (Scientific Reports, 2015).
# Read-outs that look alike come from different tables or passages of the source.
# Legend:
# α4β2 nAChR [1] = settings: read-out: IC50 for nAChRs: α4β2 (rat); cited from earlier work
# ELIC [2] = biological target: T1, ELIC (Dickeya chrysanthemi, UniProt P0C7B7); experiment: Two-electrode voltage clamp inhibition of wild-type ELIC expressed in Xenopus laevis oocytes; assay type: cell-based, Erwinia chrysanthemi
# T1 construct: DNA encoding ELIC and a T7 promoter was inserted into the pCMV-mGFP Cterm S11 NeoKan (Theranostech) vector; expressed in transfected cells; host or cells: Xenopus laevis oocytes (cRNA injection)
# T1 sequence (P0C7B7 whole entry): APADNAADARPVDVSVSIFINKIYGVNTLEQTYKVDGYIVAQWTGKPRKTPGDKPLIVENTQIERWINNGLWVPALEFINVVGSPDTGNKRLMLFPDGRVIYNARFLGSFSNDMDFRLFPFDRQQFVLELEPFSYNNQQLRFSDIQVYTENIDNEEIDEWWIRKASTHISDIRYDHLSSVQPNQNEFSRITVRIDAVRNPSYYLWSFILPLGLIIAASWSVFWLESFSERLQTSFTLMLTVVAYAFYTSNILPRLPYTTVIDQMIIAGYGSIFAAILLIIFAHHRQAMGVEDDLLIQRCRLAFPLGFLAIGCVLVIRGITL
# Description: The scale bars are 0.2 μA (vertical) and 30s (horizontal). The data were normalized to the current at EC20 in the absence of anesthetics and fit to the Hill equation (solid lines, n ≥ 6) for the volatile (b) and intravenous (c) general anesthetics. […] The data are reported as the mean ± SEM and error bars less than the symbol size are not visible.
# Site-directed mutagenesis of ELIC was introduced with the QuickChange Lightning Kit (Agilent). DNA encoding ELIC and a T7 promoter was inserted into the pCMV-mGFP Cterm S11 NeoKan (Theranostech) vector. Capped complementary RNA was transcribed with the mMessage mMachine T7 kit (Ambion), purified with the RNeasy kit (Qiagen), injected (10–25 ng) into Xenopus laevis oocytes (stages 5–6), which were maintained at 18 °C in a modified Barth’s solution[40]. […] Oocytes were clamped to a holding potential of −40 to −60 mV. The recording solutions contained 130 mM NaCl, 0.1 mM CaCl2, 10 mM HEPES, pH 7.0 as well as desired concentrations of agonist and anesthetics. Data were collected and processed using Clampex 10 (Molecular Devices). Non-linear regressions were performed using Prism software (Graphpad).
# For measuring anesthetic inhibitory effects, saturated solutions of the volatile anesthetics isoflurane, sevoflurane, and halothane were prepared in the recording solution by stirring overnight at 4 °C. Concentrations of these anesthetics in the recording chamber were calibrated using ^19F NMR[63]. The intravenous anesthetics, propofol, etomidate, and thiopental, were dissolved directly into the recording solution.
# [3] = anesthetizing concentrations in animals; read-out: Clinical EC50; cited from earlier work
# α4β2 nAChR [4] = tested on: α4β2 nAChR; design: method as in ref 6 (a number printed in a supplementary file, which may have a reference list of its own: not looked up in the article's list); settings: read-out: IC50 for nAChRs: α4β2 (chicken); cited from earlier work
# ELIC A244T mutant = biological target: T2, ELIC A244T mutant (Dickeya chrysanthemi, UniProt P0C7B7, A243T); experiment: Two-electrode voltage clamp of A244T (13′) ELIC mutant in Xenopus laevis oocytes; assay type: cell-based, Erwinia chrysanthemi
# T2 construct: DNA encoding ELIC and a T7 promoter was inserted into the pCMV-mGFP Cterm S11 NeoKan (Theranostech) vector; expressed in transfected cells; host or cells: Xenopus laevis oocytes (cRNA injection)
# T2 sequence (P0C7B7 whole entry A243T): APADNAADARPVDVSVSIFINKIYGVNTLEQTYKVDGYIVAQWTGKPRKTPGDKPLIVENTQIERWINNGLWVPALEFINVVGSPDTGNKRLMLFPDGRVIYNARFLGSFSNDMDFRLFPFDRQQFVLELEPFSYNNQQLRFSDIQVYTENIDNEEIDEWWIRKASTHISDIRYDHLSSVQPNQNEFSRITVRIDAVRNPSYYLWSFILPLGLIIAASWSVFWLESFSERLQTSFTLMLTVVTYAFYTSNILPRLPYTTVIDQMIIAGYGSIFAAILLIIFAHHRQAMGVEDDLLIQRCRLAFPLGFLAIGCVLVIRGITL
# Description: (§1) To establish the functional relevance of the identified isoflurane-binding sites, we made site-directed mutations, one at a time, at positions 6′ (T237A) and 13′ (A244T). Subsequently, we expressed these mutants in Xenopus laevis oocytes and measured their functional responses to isoflurane (Fig. 3). […] However, these mutant channels, especially T237A, are much less sensitive to isoflurane inhibition than the WT ELIC. […] The functional consequences of these mutations are associated with changes in the hydrophobicity profile and pore radii near positions 6′ and 13′ (Supplementary Fig. 2). It should be noted that the side chains of the hydrophobic residue at the 9′ position are involved in both of the isoflurane-binding sites (Fig. 2c). The fact that the isoflurane inhibition curve shifts an order of magnitude to the right in the T237A mutant indicates the importance of amphipathic interactions at position 6′ for isoflurane inhibition.
# Figure 3 Functional evidence of isoflurane binding to the pore. (a) Representative current traces for isoflurane inhibition of WT and two mutants: T237(6′)A; and A244(13′)T. The scale bars are 0.1 μA (vertical) and 30s (horizontal). (b) Agonist propylamine (PPA) concentration-response curves for WT and two mutants indicated in (a). The data were normalized to the maximum current and fit to the Hill equation (solid lines, n ≥ 5). (c) Isoflurane inhibition of WT and the two mutants indicated in (a). The data were normalized to the current at EC20 in the absence of isoflurane and fit to the Hill equation (solid lines, n ≥ 6). The data are reported as the mean ± SEM and error bars less than the symbol size are not visible.
# Site-directed mutagenesis of ELIC was introduced with the QuickChange Lightning Kit (Agilent). DNA encoding ELIC and a T7 promoter was inserted into the pCMV-mGFP Cterm S11 NeoKan (Theranostech) vector. […]
# α7 nAChR [5] = tested on: α7 nAChR; design: method as in ref 16 (a number printed in a supplementary file, which may have a reference list of its own: not looked up in the article's list); settings: read-out: IC50 for nAChRs: α7 (human); cited from earlier work
# α2β4 nAChR = settings: cited from earlier work
# α4β2 nAChR [6] = settings: read-out: IC50 for nAChRs: α4β2 (human); cited from earlier work
# ELIC [7] = biological target: T1, ELIC; experiment: Isoflurane pre-incubation: onset of agonist-induced ELIC current; assay type: cell-based, Erwinia chrysanthemi; settings: mean ± SEM, n = 15
# Description: Since isoflurane binds to the pore of the resting state of ELIC (Fig. 2a), pre-incubating the oocytes expressing ELIC with isoflurane for a short period of time is expected to enhance the inhibitory effect.
# Figure 4 Isoflurane binding stabilized the closed channel. (a) A representative trace showing that pre-incubation with isoflurane (red arrows) slowed the onset rate and increased the maximum inhibition. The vertical and horizontal scale bars represent 20 μA and 30 seconds, representatively. (b) The onset rate of the channel current can be fitted to a single exponential decay function, I = Imax (1−e^(−t/τ)). The fitting results for the onset rate τ and Imax for channels pre-incubated with isoflurane (red line) are 1.73 ± 0.04 s and −0.33 ± 0.02 μA, respectively; and 1.25 ± 0.05 s and −0.41 ± 0.03 μA, respectively, for channels without isoflurane pre-incubation (green line). The fitting parameters are expressed as mean ± SEM (n = 15).
# Site-directed mutagenesis of ELIC was introduced with the QuickChange Lightning Kit (Agilent). DNA encoding ELIC and a T7 promoter was inserted into the pCMV-mGFP Cterm S11 NeoKan (Theranostech) vector. Capped complementary RNA was transcribed with the mMessage mMachine T7 kit (Ambion), purified with the RNeasy kit (Qiagen), injected (10–25 ng) into Xenopus laevis oocytes (stages 5–6), which were maintained at 18 °C in a modified Barth’s solution[40]. All procedures involving Xenopus laevis oocytes were approved by the University of Pittsburgh Institutional Animal Care and Use Committee (IACUC), Protocol 14114745. Two-electrode voltage clamp experiments were performed 16–40 hrs after injection using an Oocyte Clamp OC-725C amplifier (Warner Instruments), Digidata 1440A digitizer (Axon Instruments), and a 20 μl chamber (Automate Scientific). Oocytes were clamped to a holding potential of −40 to −60 mV. The recording solutions contained 130 mM NaCl, 0.1 mM CaCl2, 10 mM HEPES, pH 7.0 as well as desired concentrations of agonist and anesthetics. Data were collected and processed using Clampex 10 (Molecular Devices). Non-linear regressions were performed using Prism software (Graphpad).
# ELIC T237A mutant = biological target: T3, ELIC T237A mutant (Dickeya chrysanthemi, UniProt P0C7B7, T236A); experiment: Two-electrode voltage clamp of T237A (6′) ELIC mutant in Xenopus laevis oocytes; assay type: cell-based, Erwinia chrysanthemi
# T3 construct: DNA encoding ELIC and a T7 promoter was inserted into the pCMV-mGFP Cterm S11 NeoKan (Theranostech) vector; expressed in transfected cells; host or cells: Xenopus laevis oocytes (cRNA injection)
# T3 sequence (P0C7B7 1-321 T236A): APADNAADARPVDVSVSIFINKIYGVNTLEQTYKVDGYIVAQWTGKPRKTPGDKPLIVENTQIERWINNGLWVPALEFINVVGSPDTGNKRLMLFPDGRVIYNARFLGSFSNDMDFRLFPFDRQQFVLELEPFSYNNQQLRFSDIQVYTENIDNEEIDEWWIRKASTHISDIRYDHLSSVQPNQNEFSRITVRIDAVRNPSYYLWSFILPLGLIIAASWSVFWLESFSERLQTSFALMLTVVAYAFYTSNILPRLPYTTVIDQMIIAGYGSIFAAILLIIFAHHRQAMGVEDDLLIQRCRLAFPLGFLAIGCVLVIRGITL
# Description: as §1
# Figure 3 Functional evidence of isoflurane binding to the pore. (a) Representative current traces for isoflurane inhibition of WT and two mutants: T237(6′)A; and A244(13′)T. The scale bars are 0.1 μA (vertical) and 30s (horizontal). (b) Agonist propylamine (PPA) concentration-response curves for WT and two mutants indicated in (a). The data were normalized to the maximum current and fit to the Hill equation (solid lines, n ≥ 5). […]
# α3β4 nAChR = tested on: α3β4 nAChR; design: method as in ref 8 (a number printed in a supplementary file, which may have a reference list of its own: not looked up in the article's list); settings: read-out: IC50 for nAChRs: α3β4; cited from earlier work
# α4β4 nAChR = tested on: α4β4 nAChR; design: method as in ref 11 (a number printed in a supplementary file, which may have a reference list of its own: not looked up in the article's list); settings: read-out: IC50 for nAChRs: α4β4 (chicken); cited from earlier work
# α7 nAChR [8] = tested on: α7 nAChR; design: method as in ref 12 (a number printed in a supplementary file, which may have a reference list of its own: not looked up in the article's list); settings: read-out: IC50 for nAChRs: α7 (chicken); cited from earlier work
# [9] = WT ELIC, agonist propylamine (PPA) at EC20, oocytes, mean ± SEM, n ≥ 6, read-out: IC50 for ELIC
# [10] = channels pre-incubated with isoflurane, single exponential fit
# [11] = channels without isoflurane pre-incubation
smiles,measurement,setting,value
CC(C)c1cccc(C(C)C)c1O [propofol],IC50,α4β2 nAChR [1],4.5 µM
same,IC50,ELIC [2]; [9],11.9 ± 1.1 µM
same,EC50,[3],1.5 µM
same,IC50,α4β2 nAChR [4],19 µM
"CCCN [PPA, propylamine]",EC50 of agonist PPA compared with WT ELIC,ELIC A244T mutant; A244T mutant vs wild-type ELIC,nearly identical
CCCC(C)C1(CC)C(=O)NC(=S)NC1=O (centres unmarked) [thiopental],IC50,α4β2 nAChR [1],26 µM
same,IC50,ELIC [2],42.8 ± 1.1 µM
same,IC50,α7 nAChR [5],40.6 µM
same,EC50,[3],25 µM
FC(F)(F)C(Cl)Br (centres unmarked) [halothane],IC50,α2β4 nAChR; read-out: IC50 for nAChRs: α2β4 (human),47 µM
same,IC50,ELIC [2]; [9],40 ± 4.5 µM
same,IC50,α4β2 nAChR [6],27 µM
FC(F)OC(Cl)C(F)(F)F (centres unmarked) [isoflurane],Imax of channel current,ELIC [7]; [10],−0.33 ± 0.02 μA
same,Onset rate τ of channel current,ELIC [7]; [10],1.73 ± 0.04 s
same,Imax of channel current,ELIC [7]; [11],−0.41 ± 0.03 μA
same,Onset rate τ of channel current,ELIC [7]; [11],1.25 ± 0.05 s
same,IC50,α2β4 nAChR; read-out: IC50 for nAChRs: α2β4,25 µM
same,IC50,"ELIC T237A mutant; T237A (6′) mutant, PPA at EC20, mean ± SEM, n ≥ 6, read-out: IC50 of isoflurane, T237A channel",525 ± 58.2 µM
same,Increase of isoflurane IC50 relative to the WT channel,ELIC T237A mutant; T237A vs WT ELIC,more than an order of magnitude
same,IC50,ELIC [2]; [9],21.9 ± 1.5 µM
same,IC50,α4β2 nAChR [6],82 µM
same,IC50,ELIC A244T mutant,61.7 ± 5.5 µM
same,Increase of isoflurane IC50 relative to the WT channel,ELIC A244T mutant; A244T vs WT ELIC,~3 fold
same,IC50,α3β4 nAChR,56 µM
CCOC(=O)c1cncn1[C@H](C)c1ccccc1 [etomidate],IC50,α4β2 nAChR [1],49 µM
same,IC50,α4β4 nAChR,33 µM
same,IC50,α7 nAChR [8],25.3 µM
same,IC50,ELIC [2],11.2 ± 1.1 µM
FCOC(C(F)(F)F)C(F)(F)F [sevoflurane],IC50,ELIC [2]; [9],23.2 ± 1.6 µM
